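Briefly, cells in 96-well plates were exposed to five compound concentrations for 48 h, and endpoints were estimated by linear interpolation. Abbreviation: GI50, concentration required for 50% inhibition of growth.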 Calls of active or inactive are those of the source. No stated cut-off is given here; in the data, active = GI50 up to about 1.1 µM and inactive = higher.
Experiments:
Test in all cases: DTP human tumour cell line panel, 48 h
BT-549 = tested on: BT-549
HCT-116 = tested on: HCT-116
786-0 = tested on: 786-0
RXF 393 = tested on: RXF 393
SF-295 = tested on: SF-295
T47D = tested on: T47D
PC-3 = tested on: PC-3
MDA-MB-231 = tested on: MDA-MB-231
SK-MEL-2 = tested on: SK-MEL-2
CAKI-1 = tested on: CAKI-1
DU-145 = tested on: DU-145
HL-60 = tested on: HL-60
HOP-92 = tested on: HOP-92
MOLT-4 = tested on: MOLT-4
ACHN = tested on: ACHN
SK-MEL-5 = tested on: SK-MEL-5
SK-MEL-28 = tested on: SK-MEL-28
M14 = tested on: M14
SR = tested on: SR
TK-10 = tested on: TK-10

In the case of `COc1nc(N=P(c2ccccc2)(c2ccccc2)c2ccccc2)cc(=O)[nH]1`, the GI50 (BT-549) is reported as > 100 µM (inactive), the GI50 (HCT-116) is reported as > 100 µM (inactive) and the GI50 (786-0) is reported as > 100 µM (inactive). The GI50 (RXF 393) was > 100 µM (inactive), the GI50 (SF-295) was > 100 µM (inactive) and the GI50 (T47D) was > 100 µM (inactive). For the same molecule, the GI50 (PC-3) was > 100 µM (inactive), the GI50 (MDA-MB-231) was > 100 µM (inactive) and the GI50 (SK-MEL-2) was > 100 µM (inactive). For the same molecule, the GI50 (CAKI-1) was > 100 µM (inactive), the GI50 (DU-145) was > 100 µM (inactive) and the GI50 (HL-60) was > 100 µM (inactive). For the same molecule, the GI50 (HOP-92) was > 100 µM (inactive), the GI50 (MOLT-4) was > 100 µM (inactive) and the GI50 (ACHN) was > 100 µM (inactive). The GI50 (SK-MEL-5) was > 100 µM (inactive), the GI50 (SK-MEL-28) was > 100 µM (inactive) and the GI50 (M14) was > 100 µM (inactive). For the same molecule, the GI50 (SR) was > 100 µM (inactive) and the GI50 (TK-10) was > 100 µM (inactive).

`COc1ccc(CCN2C(=O)C(=O)C(C(=O)c3ccccc3)C2c2ccccc2)cc1OC` (stereo not given) was tested, and the GI50 (BT-549) was 51.6 µM (inactive), the GI50 (HCT-116) was > 100 µM (inactive) and the GI50 (786-0) was > 100 µM (inactive). The GI50 (RXF 393) was > 100 µM (inactive), the GI50 (SF-295) was 44.2 µM (inactive) and the GI50 (T47D) was 90.8 µM (inactive). The GI50 (PC-3) was > 100 µM (inactive), the GI50 (MDA-MB-231) was > 100 µM (inactive) and the GI50 (SK-MEL-2) was > 100 µM (inactive). For the same molecule, the GI50 (CAKI-1) was > 100 µM (inactive), the GI50 (DU-145) was > 100 µM (inactive) and the GI50 (HL-60) was > 100 µM (inactive). For the same molecule, the GI50 (HOP-92) was 41.7 µM (inactive), the GI50 (MOLT-4) was > 100 µM (inactive) and the GI50 (ACHN) was > 100 µM (inactive). For the same molecule, the GI50 (SK-MEL-5) was > 100 µM (inactive), the GI50 (SK-MEL-28) was > 100 µM (inactive) and the GI50 (M14) was > 100 µM (inactive). The GI50 (SR) was > 100 µM (inactive) and the GI50 (TK-10) was > 100 µM (inactive).

In the case of `NCC(O)CN.Oc1c(Cl)c(Cl)c(Cl)c(Cl)c1Cl`, the GI50 (BT-549) is reported as 24 µM (inactive), the GI50 (HCT-116) is reported as 18.2 µM (inactive) and the GI50 (786-0) is reported as 23.6 µM (inactive). For the same molecule, the GI50 (RXF 393) was 27 µM (inactive), the GI50 (SF-295) was 17.6 µM (inactive) and the GI50 (T47D) was 22.5 µM (inactive). The GI50 (PC-3) was 22 µM (inactive), the GI50 (MDA-MB-231) was 20.2 µM (inactive) and the GI50 (SK-MEL-2) was 22.5 µM (inactive). For the same molecule, the GI50 (CAKI-1) was 31.1 µM (inactive), the GI50 (DU-145) was 31.6 µM (inactive) and the GI50 (HL-60) was 16 µM (inactive). For the same molecule, the GI50 (HOP-92) was 20.7 µM (inactive), the GI50 (MOLT-4) was 19.7 µM (inactive) and the GI50 (ACHN) was 18.3 µM (inactive). The GI50 (SK-MEL-5) was 14.4 µM (inactive), the GI50 (SK-MEL-28) was 21.2 µM (inactive) and the GI50 (M14) was 19.7 µM (inactive). The GI50 (SR) was 25.5 µM (inactive) and the GI50 (TK-10) was 24.5 µM (inactive).

`C=C1C2CC[C@@](C)(O)C2[C@H]2OC(=O)C(=C)[C@@H]2C[C@H]1O` (stereo not given in full) was tested, and the GI50 (BT-549) was 10.3 µM (inactive), the GI50 (HCT-116) was 27 µM (inactive) and the GI50 (786-0) was 16.1 µM (inactive). For the same molecule, the GI50 (RXF 393) was 22.1 µM (inactive), the GI50 (SF-295) was 54.6 µM (inactive) and the GI50 (T47D) was 17.8 µM (inactive). For the same molecule, the GI50 (PC-3) was 34.4 µM (inactive), the GI50 (MDA-MB-231) was 18.8 µM (inactive) and the GI50 (SK-MEL-2) was 20.9 µM (inactive). The GI50 (CAKI-1) was 12.1 µM (inactive), the GI50 (DU-145) was 15.5 µM (inactive) and the GI50 (HL-60) was 37.2 µM (inactive). For the same molecule, the GI50 (HOP-92) was 27.5 µM (inactive), the GI50 (MOLT-4) was 14.7 µM (inactive) and the GI50 (ACHN) was 10.8 µM (inactive). For the same molecule, the GI50 (SK-MEL-5) was 8.38 µM (inactive), the GI50 (SK-MEL-28) was 26 µM (inactive) and the GI50 (M14) was 13.8 µM (inactive). For the same molecule, the GI50 (SR) was 17.1 µM (inactive) and the GI50 (TK-10) was 14.9 µM (inactive).

`Cn1cncc1CC1COC(=O)C1C(O)c1ccccc1` (stereo not given) was tested, and the GI50 (BT-549) was > 100 µM (inactive), the GI50 (HCT-116) was > 100 µM (inactive) and the GI50 (786-0) was > 100 µM (inactive). The GI50 (RXF 393) was > 100 µM (inactive), the GI50 (SF-295) was > 100 µM (inactive) and the GI50 (T47D) was > 100 µM (inactive). The GI50 (PC-3) was > 100 µM (inactive), the GI50 (MDA-MB-231) was > 100 µM (inactive) and the GI50 (SK-MEL-2) was > 100 µM (inactive). The GI50 (CAKI-1) was > 100 µM (inactive), the GI50 (DU-145) was > 100 µM (inactive) and the GI50 (HL-60) was > 100 µM (inactive). For the same molecule, the GI50 (HOP-92) was > 100 µM (inactive), the GI50 (MOLT-4) was > 100 µM (inactive) and the GI50 (ACHN) was > 100 µM (inactive). The GI50 (SK-MEL-5) was > 100 µM (inactive), the GI50 (SK-MEL-28) was > 100 µM (inactive) and the GI50 (M14) was > 100 µM (inactive). For the same molecule, the GI50 (SR) was > 100 µM (inactive) and the GI50 (TK-10) was > 100 µM (inactive).

With `CCOC(=O)CCc1c(C(=O)OCC)[nH]c(/C=C2/NC(=O)C(C)=C2CC)c1C` the GI50 (BT-549) was 1.61 µM (inactive), the GI50 (HCT-116) was 13.1 µM (inactive) and the GI50 (786-0) was 15.8 µM (inactive). For the same molecule, the GI50 (RXF 393) was 11.1 µM (inactive), the GI50 (SF-295) was 11.6 µM (inactive) and the GI50 (T47D) was 2.11 µM (inactive). The GI50 (PC-3) was 22.1 µM (inactive), the GI50 (MDA-MB-231) was 13.6 µM (inactive) and the GI50 (SK-MEL-2) was 18.3 µM (inactive). The GI50 (CAKI-1) was 21.2 µM (inactive), the GI50 (DU-145) was 16.9 µM (inactive) and the GI50 (HL-60) was 5.01 µM (inactive). For the same molecule, the GI50 (HOP-92) was 14.1 µM (inactive), the GI50 (MOLT-4) was 0.0224 µM (active) and the GI50 (ACHN) was 11.3 µM (inactive). The GI50 (SK-MEL-5) was 2.97 µM (inactive), the GI50 (SK-MEL-28) was 13.7 µM (inactive) and the GI50 (M14) was 7.28 µM (inactive). For the same molecule, the GI50 (SR) was 4.51 µM (inactive) and the GI50 (TK-10) was 24.7 µM (inactive).

From ChEMBL document CHEMBL1201862, “PubChem BioAssay data set” (2004)
